From patent US7955852B2, “Expansion of renewable stem cell populations” (Gamida Cell Ltd., priority 2002, dated 2011) come the findings set out here.

SMILES strings stand for the structures.

The test system of the data set is primary hepatocytes. Kind of data set: Primary hepatocyte cultures; α-fetoprotein/albumin immunostaining and Giemsa morphology. It is filed as cell-based, mice. As to conditions: for oval cell population (Giemsa) / α-fetoprotein (AFP) expression vs control: 10^−5 M, three week old primary cultures, no cytokines. How it is done: Three intact livers were harvested from 3 week old VLVC female mice (Harlan Laboratories, Jerusalem, Israel), dissected and washed twice with DMEM (Beit Haemek, Israel), incubated with DMEM in the presence 0.05% collagenase for 30 minutes at 37° C., ground and passed through a 200 μm mesh sieve, yielding individual hepatocytes. Cells were washed twice and viability was ascertained with trypan blue. Cells were plated in collagen-coated, 35 mm tissue culture plates at a density of 4-×10^4 live cells/ml in F12 media (containing 15 mM Hepes, 0.1% glucose, 10 mM sodium bicarbonate, 100 units/ml penicillin-streptomycin, glutamine, 0.5 units/ml insulin, 7.5 m cg/ml hydrocortisone, and 10% fetal bovine serum). Medium was changed after 12 hours, the cells were washed twice with phosphate buffered saline (PBS) and new medium was added. Medium was changed twice a week.
Hepatocytes were also grown in the presence of Epidermal Growth Factor (EGF), Platelet-Derived Growth Factor β chain (PDGF-BB), Fibroblast growth Factors (FGF4) and Hepatocyte Growth Factor (HGF), at 20-50 ng/ml each, for the entire culturing period according to the method of Schwartz et al. (Schwartz R E, Reyes M, Koodie L, Jiang Y, Blackstad M, Lund T, Lenvik T, Johnson S, Hu W S, Verfaillie C M. Multipotent adult progenitor cells from bone marrow differentiate into functional hepatocyte-like cells. J Clin Invest. 2002; 109 (10): 1291-302). Hepatocytes were also grown in serum free medium according to the method of Runge et al. (Runge D, Runge D M, Jager D, Lubecki K A, Beer Stolz D, Karathanasis S, Kietzmann T, Strom S C, Jungermann K, Fleig W E, Michalopoulos G K. Serum-free, long-term cultures of human hepatocytes: maintenance of cell morphology, transcription factors, and liver-specific functions. Biochem Biophys Res Commun. 2000; 269(1): 46-53).
In all of the above-mentioned hepatocytes culture conditions, cells are grown in the presence or absence of the retinoic acid antagonist AGN 194310 at concentrations ranging from 10^−5 M to 10^−9 M.
After a period of 3 weeks, cultures treated with 10^−5 M antagonist were detached with 0.25% trypsin, split and replated at a 1:2 ratio. The cells were either immunostained as described below, or visualized with Giemsa staining.
Murine hepatocyte cultures supplemented with EGF and HGF were evaluated as primary cultures, or following first and second passages. First passage cultures were grown for 2 weeks, split 1:2 and immunostained 8 days later for the presence of albumin, as described below. Second passage cultures were similarly grown for 2 weeks, split 1:2, and grown for an additional week, then split 1:4 and similarly immunostained 4 days later.
Ex-vivo expanded cells and hepatocytes were stained with Giemsa stain, according to manufacturer's instructions (Shandon, Pittsburg, Pa.) for 4 minutes at room temperature, washed in buffer solution for 4 minutes and washed 3-4 times with rinse solution.
Hepatocytes were probed for expression of α-fetoprotein (AFP) using a rabbit polyclonal antibody raised against a recombinant protein of human origin that cross-reacts with AFP from mouse (H-140 Santa Cruz Technology, Santa Cruz, Calif.), and albumin using a rabbit antiserum to mouse albumin (Cappel-ICN, Aurora, Ohio). Cells were fixed in methanol at −20° C. for 10 minutes, rinsed with PBS for 5 minutes, and permeabilized with 0.1% triton-X (Sigma, Jerusalem, Israel) in PBS for 5 minutes. The cells were then washed with Tris buffer saline (TBS) for 5 minutes and incubated with 1% bovine serum albumin (BSA) in PBS for 10 minutes. Endogeneous peroxidases were inactivated by incubation with peroxidase block (Envision, Dako, Carpinteria, Calif.) for 5 minutes, at room temperature. Cells were incubated with antibodies raised in rabbit against mouse albumin (at a dilution of 1:100); or against α-fetoprotein (at a dilution of 1:25) for 30 minutes. […]

Where [1] appears, read: listed as retinoic acid antagonist.

With `CCc1ccc(C2=CC(C)(C)Sc3ccc(C#Cc4ccc(C(=O)O)cc4)cc32)cc1` [AGN 194310, 4-[[4-(4-ethylphenyl)-2,2-dimethyl-(2H)-thiochroman-6-yl]-ethynyl]benzoic acid], the “oval cell population (Giemsa)” value is reported as “marked increase” and the “α-fetoprotein (AFP) expression vs control” value is “marked increase”. Also, the “number of hepatocytes in second passage cultures vs controls” value (10^−5 M to 10^−7 M, second passage, EGF and HGF supplemented) is on record as “Significantly greater numbers of hepatocytes”. Further, under setting [1], the “oval cell population (Giemsa)” value is “large population” and the “α-fetoprotein (AFP) expression vs control” value is recorded as “increase”. Further, the “oval cells in first passage cultures” value (first passage, EGF and HGF supplemented) is “numerous islets of oval cells”. Moreover, under “three weeks old primary cultures supplemented with EGF and HGF”, the α-fetoprotein staining entry was “Significant strong AFP staining”.
